# From paper PMC10353390, “Biological and Structural Analyses of New Potent Allosteric Inhibitors of HIV-1 Integrase” (Antimicrobial Agents and Chemotherapy, 2023)
# Tests used:
# HIV-1 IN = molecular target: T1, HIV-1 IN (Human immunodeficiency virus type 1 group M subtype B, UniProt P12497); experiment: HTRF IN multimerization assay; type: biochemical; settings: mean ± SD
# T1 construct: made in house
# Description: A key property of INLAIs is the ability to promote HIV-1 IN homo-multimerization ([39][–][42]). […] The maximal signal (plateau) in our IN aggregation assay corresponds to the highest HTRF signal increase under saturating INLAI concentration, relative to baseline level. Thus, MUT916, MUT884, MUT871, and MUT872 increased HIV-1 IN aggregation 3.7 to 4.4-fold, while BDM-2, BI-224436, and S-I-82 did so 5 to 6-fold (Table 1).
# HXB2 HIV-1 strain = experiment: Multiple-round infection assay in MT4 cells, HXB2; type: cell-based; settings: Human immunodeficiency virus 1, HXB2; multiple-round infection, MT4 cells; mean ± SD, n > 5; read-out: EC50 HXB2
# Procedure: Antiretroviral activity of BDM-2 and its analogs was first evaluated in lymphoblastoid cell line MT4 and in primary human T lymphocytes using NL4-3 and HXB2 laboratory HIV-1 isolates.
# (§1) MT4 cells growing exponentially at the density of 10^6/mL were infected with HIV-1 strain NL4-3 at a multiplicity of infection (MOI) of 0.001 for 2 h in the presence of different concentrations of compounds, and the CellTiter-Glo luminescent reagent (Promega) was used to quantify cell viability as described previously ([12]).
# NL4-3 HIV-1 strain = experiment: Multiple-round infection assay in MT4 cells, NL4-3; type: cell-based; settings: MT4 cells
# [1] = Cytotoxicity assay in MT4 cells; type: cell-based; settings: human, MT4 cells (proliferating human T-cell line), CellTiter-Glo
# Description: Growth inhibition was monitored in a proliferating human T-cell line (MT4) with different concentrations of compounds, using the CellTiter-Glo luminescent reagent (Promega), as previously described ([12]).
# [2] = test system: VSV-G-pseudotyped NL4-3Δenv-luc; experiment: microbe, parasite or virus in culture; type: cell-based, HIV-1
# [3] = test system: recombinant NL4-3 viruses with polymorphisms at IN positions 124 and 125; experiment: Multiple-round infection of MT4 cells with recombinant NL4-3 viruses polymorphic at IN positions 124 and 125; type: cell-based, HIV-1
# Description: Located on the HIV-1 IN CCD dimerization interface, the principal INLAI binding pocket overlaps with a hot spot of amino acid sequence polymorphism involving IN residues 124 and 125 ([16]). To test if the new INLAIs maintained antiviral activity against major polymorphisms, we introduced all major combinations of residues found in circulating HIV-1 strains at positions 124 and 125 into NL4-3 HIV-1 molecular clone. In total, we evaluated 15 such combinations that collectively covered 98% of all HIV-1 clade polymorphisms involving these positions ([48]). To gauge effects on the antiviral activity, we calculated the EC50 fold change (FC) relative to wild type NL4-3 HIV-1 strain that features Thr124 and Thr125 (TT; specific polymorphisms are referred to by a single letter amino acid code).
# as §1
# [4] = test system: primary HIV-1 isolates with polymorphisms at IN positions 124 and 125; experiment: Multiple-round infection of MT4 cells with primary HIV-1 isolates polymorphic at IN positions 124 and 125; type: cell-based; settings: primary isolate
# Procedure: Next, we evaluated the potency of the BDM-2 series of INLAIs against several primary HIV-1 isolates with polymorphisms at IN positions 124 and 125.
# as §1
# [5] = test system: HIV-1 strains resistant to INSTIs, NRTIs, NNRTIs or PIs; type: cell-based
# Procedure: To this end, we used both recombinant viruses constructed by introducing described drug resistance mutations into NL4-3 HIV-1 clone as well as drug-resistant clinical HIV-1 isolates.
# as §1
# [6] = test system: NL4-3 HIV-1 with INLAI-selected IN single point mutations; type: cell-based
# [7] = molecular target: HIV-1 IN-LEDGF/p75 interaction (Human immunodeficiency virus type 1 group M subtype B, UniProt P12497); experiment: biochemical
# [8] = molecular target: CCD of HIV-1 IN and IBD of LEDGF/p75 (Human immunodeficiency virus type 1 group M subtype B, UniProt P12497); experiment: biochemical
# Procedure: The INLAIs were tested for the ability to inhibit the HIV-1 IN-LEDGF/p75 interaction in a homogeneous time-resolved fluorescence (HTRF) assay. Our assays used either full-length IN and LEDGF/p75 proteins or their respective minimally sufficient interaction domains: the CCD of HIV-1 IN and the IBD of LEDGF/p75 (Table 1).
# HTRF-based CCD-IBD interaction, IN-LEDGF/p75 interaction and IN multimerization assays were performed as described previously ([12]).
# [9] = INSTI-resistant, NL4-3 background
smiles,measurement,setting,value
Cc1ccc(C2CC2)c(-c2cc(F)c3c(c2C)CCCO3)c1[C@H](OC1CC1)C(=O)O [MUT916],AC50,HIV-1 IN; concentration for 50% maximum activation of multimerization,22 ± 2 nM
same,IN multimerization Plateau,HIV-1 IN; maximum multimerization reached versus baseline,370 ± 60%
same,EC50,HXB2 HIV-1 strain,8.8 ± 0.8 nM
same,EC90,"NL4-3 HIV-1 strain; Human immunodeficiency virus 1, NL43, multiple-round infection, from dose response curves, read-out: EC90 NL4-3",30 ± 15 nM
same,EC50,"NL4-3 HIV-1 strain; Human immunodeficiency virus 1, NL43, multiple-round infection, mean ± SD, n > 5, read-out: EC50 NL4-3",20 ± 9 nM
same,Selectivity index CC50/EC50 NL4-3,NL4-3 HIV-1 strain,"3,900"
same,CC50,[1],78000 ± 6000 nM
same,EC50 ratio (single/multiple-round infection),[2],105
same,EC50,"[2]; Human immunodeficiency virus 1, NL43, MT4, read-out: EC50 in single-round infection",2100 ± 200 nM
same,"Fold change in EC50 relative to parental NL4-3, AA","[3]; recombinant NL4-3, IN 124/125 AA",1
same,"Fold change in EC50 relative to parental NL4-3, AM","[3]; recombinant NL4-3, IN 124/125 AM",0.2
same,"Fold change in EC50 relative to parental NL4-3, AT","[3]; recombinant NL4-3, IN 124/125 AT",0.5
same,"Fold change in EC50 relative to parental NL4-3, AV","[3]; recombinant NL4-3, IN 124/125 AV",0.4
same,"Fold change in EC50 relative to parental NL4-3, GA","[3]; recombinant NL4-3, IN 124/125 GA",1
same,"Fold change in EC50 relative to parental NL4-3, GT","[3]; recombinant NL4-3, IN 124/125 GT",1
same,"Fold change in EC50 relative to parental NL4-3, NA","[3]; recombinant NL4-3, IN 124/125 NA",4
same,"Fold change in EC50 relative to parental NL4-3, NT","[3]; recombinant NL4-3, IN 124/125 NT",1
same,"Fold change in EC50 relative to parental NL4-3, NV","[3]; recombinant NL4-3, IN 124/125 NV",0.4
same,"Fold change in EC50 relative to parental NL4-3, SA","[3]; recombinant NL4-3, IN 124/125 SA",1
same,"Fold change in EC50 relative to parental NL4-3, ST","[3]; recombinant NL4-3, IN 124/125 ST",1
same,"Fold change in EC50 relative to parental NL4-3, TA","[3]; recombinant NL4-3, IN 124/125 TA",1
same,"Fold change in EC50 relative to parental NL4-3, TM","[3]; recombinant NL4-3, IN 124/125 TM",0.2
same,"Fold change in EC50 relative to parental NL4-3, TV","[3]; recombinant NL4-3, IN 124/125 TV",0.4
same,"Fold change in EC50 relative to parental NL4-3, CAM2BBY (CRF02)",[4]; IN 124/125 AA,1
same,"Fold change in EC50 relative to parental NL4-3, E0836M4 (D)",[4]; IN 124/125 AA,1
same,"Fold change in EC50 relative to parental NL4-3, KER2008 (A)",[4]; IN 124/125 AA,1
same,"Fold change in EC50 relative to parental NL4-3, NP1525 (CRF01)",[4]; IN 124/125 AA,1
same,"Fold change in EC50 relative to parental NL4-3, NP1695 (CRF02)",[4]; IN 124/125 AA,2
same,"Fold change in EC50 relative to parental NL4-3, TZA125 (C)",[4]; IN 124/125 AA,0.4
same,"Fold change in EC50 relative to parental NL4-3, KSM4030 (A)",[4]; IN 124/125 GA,1
same,"Fold change in EC50 relative to parental NL4-3, vGA (C)",[4]; IN 124/125 GA,5
same,"Fold change in EC50 relative to parental NL4-3, 99ET14 (C)",[4]; IN 124/125 NA,2
same,"Fold change in EC50 relative to parental NL4-3, NP1538 (B)",[4]; IN 124/125 NA,2
same,"Fold change in EC50 relative to parental NL4-3, vNA_1 (B)",[4]; IN 124/125 NA,4
same,"Fold change in EC50 relative to parental NL4-3, vNA_2 (CRF02)",[4]; IN 124/125 NA,10
same,"Fold change in EC50 relative to parental NL4-3, vNV (B)",[4]; IN 124/125 NV,1
same,"Fold change in EC50 relative to parental NL4-3, vSA_1 (B)",[4]; IN 124/125 SA,3
same,"Fold change in EC50 relative to parental NL4-3, vSA_2 (CRF02)",[4]; IN 124/125 SA,4
same,"Fold change in EC50 relative to parental NL4-3, vTA_1 (B)",[4]; IN 124/125 TA,2
same,"Fold change in EC50 relative to parental NL4-3, vTA_2 (CRF02)",[4]; IN 124/125 TA,2
same,"Fold change in EC50 relative to NL4-3, E92Q",[5]; [9],1
same,"Fold change in EC50 relative to NL4-3, G140S",[5]; [9],1
same,"Fold change in EC50 relative to NL4-3, G140S/Q148H",[5]; [9],1
same,"Fold change in EC50 relative to NL4-3, N155H",[5]; [9],1
same,"Fold change in EC50 relative to NL4-3, Q148H",[5]; [9],1
same,"Fold change in EC50 relative to NL4-3, Y143R",[5]; [9],0.4
same,"Fold change in EC50 relative to NL4-3, NLAY351717",[5]; NRTI-resistant clone,1
same,"Fold change in EC50 relative to NL4-3, NLAY351753",[5]; NRTI/NNRTI-resistant clone,2
same,"Fold change in EC50 relative to NL4-3, K103N/Y181C","[5]; NRTI/NNRTIs group, NL4-3 background",1
same,"Fold change in EC50 relative to NL4-3, ARP-4595",[5]; PI-resistant virus,2
same,"Fold change in EC50 relative to NL4-3, ARP-4596",[5]; PI-resistant virus,1
same,"Fold change in EC50 relative to NL4-3, ARP-11801",[5]; PI-resistant virus,2
same,"Fold change in EC50 relative to NL4-3, ARP-11803",[5]; PI-resistant virus,2
same,"Fold change in EC50 relative to NL4-3, ARP-11807",[5]; PI-resistant virus,2
same,"Fold change in EC50 relative to NL4-3, ARP-11808",[5]; PI-resistant virus,2
same,"EC50 fold change compared to wild type NL4-3, A128T",[6],4
same,"EC50 fold change compared to wild type NL4-3, H171Q",[6],1
same,"EC50 fold change compared to wild type NL4-3, N222K",[6],3
same,"EC50 fold change compared to wild type NL4-3, T174I",[6],14
same,"EC50 fold change compared to wild type NL4-3, Y99H",[6],3
same,IC50,[7],46 ± 16 nM
same,IC50,[8],19 ± 8 nM
